Patent US7778782B1, “Peroxisome proliferation activated receptor alpha (PPARα) signatures” (priority 2002, dated 2010)
Marks after values point to notes of the source that are not given here.

The compounds below were run on PPARα response signature (assay: Signature Projection Score (SPS) of liver gene expression against the PPARα response signature). Details: rat liver expression data in DrugMatrix database compared with PPARα response signature; normalised so highest training treatment = 100; *= p < 0.01, **= p < 0.001.
Format: in vivo, male Sprague-Dawley rats
Description: Compound dosing was based on the acute dose LD50s recorded in published reference or literature sources. Duplicate rats were dosed at each of 3 doses: at LD50, one-half and one-fourth of LD50. The MTD (maximum tolerated dose) was then selected as the dose at which the animals […] 5-10% body weight during the 5-day range finding study. […] In addition, the clinical observations must show no or mild clinical signs during the whole of the range-finding study. At the next highest dose, signs and symptoms of adverse effects and exceeding those of the MTD should be seen to occur. Should these criteria not be met, the range-finding study is repeated using a modified dose range.
After determination of the MTD and FED for a compound, each compound was dissolved in a vehicle for administration on day 1 of the study (additional daily doses were stored as frozen aliquots from this initial formulation). Each compound was administered to three individual male Sprague-Dawley rats for each of the two doses (MTD and FED) for one of four different times (0.25 day, 1 day, 3 days, and 5 or 7 days), yielding a total of up to 24 animals per compound study. Vehicle choice was based on solubility of the compound, effect of food on adsorption, and the vehicles used in the literature reports examined during the FED selection investigations, described above. Generally, the route and vehicle in which the FED was defined are used. When there was a choice of routes and vehicles, oral routes were chosen over injection routes. Many compounds, especially oncolytics, are only administerable intravenously. In such cases, the compound was administered as an intravenous formulation into the tail vein. Orally administered compounds were given dissolved in either water, 1% carboxymethycellulose (CMC) or corn oil. Intravenously and intraperitoneally administered compounds were given in 0.9% saline. Subcutaneously administered compounds were given in corn oil. Animal body weights were determined at 1 day and, where appropriate, at 4 days, before necropsy, and clinical observations were made on a daily basis. Control animals were dosed with vehicle only. Three male animals were used for each dose and time combination used for the compound treatment.
Tissue harvest and handling: After the allocated treatment time, the tissues from the animals were harvested. […] All the tissues collected were divided to provide samples for histopathological analyses, and the remainder of each tissue was then snap-frozen. […] The parameters were measured using a Hitachi-911 clinical chemistry analysis instrument according to the manufacturer's instructions. The following blood constituents were measured: Blood Urea Nitrogen (BUN), Creatinine (CRE), Glucose (GLU), Alanine Transaminase (ALT), Aspartate Aminotransferase (AST), Alkaline Phosphatase (ALP), Total Bilirubin (TBI), Sodium (SOD), Potassium (POT), Chloride (CHL), Phosphorus (PHO), Total Protein (TPR), Albumin (ALB), Cholesterol (CHO), Creatine Phosphokinase (CPK), Lactate Dehydrogenase (LDH), Carbon Dioxide (CO2), Uric Acid (UA), and Lipase. […] The parameters were measured using a Baker 9000 blood cell analysis instrument according to the manufactures instructions. The following blood constituents were measured: Leukocyte count (WBC), Differential Leukocyte counts, Erythrocyte count (RBC), Hemoglobin concentration (HGB), Hematocrit (HCT), Mean Corpuscular Volume (MCV), Mean Corpuscular Hemoglobin (MCH), Mean Corpuscular Hemoglobin Concentration (MCC), Thrombocyte Count (PLC). Histopathology: Histopathological analyses of hematoxylin and eosin-stained tissue sections were performed and peer-reviewed by board-certified (Diplomate, American College of Veterinary Pathologists) veterinary pathologists.

Row | SMILES | SPS (Sequence Projection Score) | SPS (Signature Projection Score)
1 | CC1=C(CC(=O)O)c2cc(F)ccc2/C1=C\c1ccc([S+](C)[O-])cc1 (centres unmarked) | 4 | 
2 | C[C@]12CCC(=O)C=C1CC[C@@H]1[C@@H]2CC[C@@]2(C)[C@H]1CC[C@]2(C)O [17-METHYLTESTOSTERONE] | 5 | 
3 | CC(C)c1c(C(=O)Nc2ccccc2)c(-c2ccccc2)c(-c2ccc(F)cc2)n1CC[C@@H](O)C[C@@H](O)CC(=O)O [ATORVASTATIN] | 22* | 
4 | Cn1cnc([N+](=O)[O-])c1Sc1ncnc2nc[nH]c12 [AZATHIOPRINE] | 7 | 
5 | C[C@]12CC[C@@H]3c4ccc(O)cc4CC[C@H]3[C@@H]1CC[C@@H]2O [BETA-ESTRADIOL] | 11 | 
6 | CC(C)(Oc1ccc(CCNC(=O)c2ccc(Cl)cc2)cc1)C(=O)O [BEZAFIBRATE, 2-(4-(2-((4-chlorobenzoyl)amino)ethyl)phenoxy)-2-methylpropanoic acid] |  | 102**
7 | CCCCC(CC)COC(=O)c1ccccc1C(=O)OCC(CC)CCCC (centres unmarked) [BIS-2-ETHYLHEXYL PHTHALATE] | 68** | 
8 | Oc1c(Cl)cc(Cl)cc1Sc1cc(Cl)cc(Cl)c1O [BITHIONOL] | 20 | 
9 | COCc1c(C(C)C)nc(C(C)C)c(/C=C/[C@@H](O)C[C@@H](O)CC(=O)O)c1-c1ccc(F)cc1 [CERIVASTATIN] | 15 | 
10 | O=C(O)CCCc1ccc(N(CCCl)CCCl)cc1 [CHLORAMBUCIL] |  | 8
11 | N.N.[Cl][Pt][Cl] [CISPLATIN] | 9 | 
12 | CCOC(=O)C(C)(C)Oc1ccc(Cl)cc1 [CLOFIBRATE, 2-(p-chlorophenoxy)-2-methylpropionic acid ethyl ester] | 99** | 
13 | Clc1ccccc1C(c1ccccc1)(c1ccccc1)n1ccnc1 [CLOTRIMAZOLE] | 4 | 
14 | CC(=O)O[C@]1(C(C)=O)CC[C@H]2[C@@H]3C=C(Cl)C4=CC(=O)[C@@H]5C[C@@H]5[C@]4(C)[C@H]3CC[C@@]21C [CYPROTERONE ACETATE] | 5 | 
15 | C[C@@H]1C[C@H]2[C@@H]3CCC4=CC(=O)C=C[C@]4(C)[C@@]3(F)[C@@H](O)C[C@]2(C)[C@@]1(O)C(=O)CO [DEXAMETHASONE] | 9 | 
16 | C#C[C@]1(O)CC[C@H]2[C@@H]3CCc4cc(O)ccc4[C@H]3CC[C@@]21C [ETHINYLESTRADIOL] | 19 | 
17 | OC(Cn1cncn1)(Cn1cncn1)c1ccc(F)cc1F [FLUCONAZOLE] | 4 | 
18 | Cc1ccc(C)c(OCCCC(C)(C)C(=O)O)c1 [GEMFIBROZIL, 5-(2,5-dimethylphenoxy)-2,2-dimethylpentanoic acid] | 65* | 
19 | O=P1(NCCCl)OCCCN1CCCl (centres unmarked) [IFOSFAMIDE] | 9 | 
20 | CC(=O)N1CCN(c2ccc(OCC3COC(Cn4ccnc4)(c4ccc(Cl)cc4Cl)O3)cc2)CC1 (centres unmarked) [KETOCONAZOLE] | 6 | 
21 | Cc1oncc1C(=O)Nc1ccc(C(F)(F)F)cc1 [LEFLUNOMIDE] | 5 | 
22 | CC#C[C@]1(O)CC[C@H]2[C@@H]3CCC4=CC(=O)CCC4=C3[C@@H](c3ccc(N(C)C)cc3)C[C@@]21C [MIFEPRISTONE] | 7 | 
23 | CN(C)C=O [N,N-DIMETHYLFORMAMIDE] | 5 | 
24 | C#C[C@]1(OC(C)=O)CC[C@H]2[C@@H]3CCC4=CC(=O)CC[C@@H]4[C@H]3CC[C@@]21C [NORETHINDRONE ACETATE] | 5 | 
25 | c1ccc2c(c1)Nc1ccccc1S2 [PHENOTHIAZINE] | 23* | 
26 | CC(=O)[C@H]1CC[C@H]2[C@@H]3CCC4=CC(=O)CC[C@]4(C)[C@H]3CC[C@]12C [PROGESTERONE] | 5 | 
27 | O=C(c1ccc(OCCN2CCCCC2)cc1)c1c(-c2ccc(O)cc2)sc2cc(O)ccc12 [RALOXIFENE] | 44* | 

Same assay, conditions: rat liver gene expression, in words

Row | SMILES | similarity to the PPARα response signature
28 | CC(C)c1c(C(=O)Nc2ccccc2)c(-c2ccccc2)c(-c2ccc(F)cc2)n1CC[C@@H](O)C[C@@H](O)CC(=O)O [ATORVASTATIN] | significantly similar to the signature
29 | CCCCC(CC)COC(=O)c1ccccc1C(=O)OCC(CC)CCCC (centres unmarked) [BIS-2-ETHYLHEXYL PHTHALATE] | significantly similar to the signature

Same assay, conditions: rat, in vivo

Row | SMILES | SPS (Signature Projection Score) | similarity to the PPARα response signature
30 | CC(C)n1c(/C=C/C(O)CC(O)CC(=O)O)c(-c2ccc(F)cc2)c2ccccc21 (centres unmarked) [FLUVASTATIN] | 35* | 
31 | CC[C@H](C)C(=O)O[C@H]1C[C@@H](C)C=C2C=C[C@H](C)[C@H](CC[C@@H]3C[C@@H](O)CC(=O)O3)[C@H]21 [LOVASTATIN] | 45* | significantly similar to the signature
